This assay concerns the target T1, γ-secretase (Homo sapiens, UniProt P49768).
T1 construct: endogenous in cells; host or cells: SKNBE2 cells carrying APP 695 wild type
As to the kind of experiment: Screening for γ-secretase-modulating activity in SKNBE2 cells carrying the APP 695-wild type (assay per Citron et al 1997). The class given is cell-based. The following applies: SKNBE2 cells carrying APP 695-wild type. Here is the method: Screening of the Compounds of the Invention for γ-Secretase-Modulating Activity
Screening was carried out using SKNBE2 cells carrying the APP 695-wild type, grown in DMEM/NUT-mix F12 (HAM) provided by Gibco (cat no. 31330-38) containing 5% Serum/Fe supplemented with 1% non-essential amino acids.
Cells were grown to near confluency.
The screening was performed using the assay as described in Citron et al (1997) Nature Medicine 3: 67.

SMILES strings stand for the structures.

As to `CC(C)CC(C(=O)O)c1cc(-c2ccc(C(F)(F)F)cc2)nc(-c2c(F)cccc2F)c1` (stereo not shown) [Example 26, 2-[2-(2,6-Difluoro-phenyl)-6-(4-trifluoromethyl-phenyl)-pyridin-4-yl]-4-methyl-pentanoic acid], at 1 µM the inhibition was 2%.
Same read-out and setting: the result for `C=C(C)CC(C(=O)O)c1cc(-c2ccc(C(F)(F)F)cc2)nc(-c2c(F)cccc2F)c1` (stereo not shown) [Example 27, 2-[2-(2,6-Difluoro-phenyl)-6-(4-trifluoromethyl-phenyl)-pyridin-4-yl]-4-methyl-pent-4-enoic acid] reads 5%.
On the same count and under the same terms, the result for `C=C(C)CC(C(=O)O)c1cc(-c2ccc(C(F)(F)F)cc2)nc(-c2cc3ccccc3s2)c1` (stereo not shown) [Example 28, 2-[2-Benzo[b]thiophen-2-yl-6-(4-trifluoromethyl-phenyl)-pyridin-4-yl]-4-methyl-pent-4-enoic acid] reads 0%.
Same read-out and setting: the result for `CC(C)CC(C(=O)O)c1cc(-c2ccc(C(F)(F)F)cc2)nc(-c2cc3ccccc3s2)c1` (stereo not shown) [Example 29, 2-[2-Benzo[b]thiophen-2-yl-6-(4-trifluoromethyl-phenyl)-pyridin-4-yl]-4-methyl-pentanoic acid] reads 57%; that for `CC(C)CC(C(=O)O)c1cc(-c2ccc(C(F)(F)F)cc2)nc(-c2ccc(C(F)(F)F)nc2)c1` (stereo not shown) [Example 30, 4-Methyl-2-[6′-trifluoromethyl-6-(4-trifluoromethyl-phenyl)-[2,3′]bipyridinyl-4-yl]-pentanoic acid], 0%.
As to `C=C(C)CC(C(=O)O)c1cc(-c2ccc(C(F)(F)F)cc2)nc(-c2ccc(C(F)(F)F)nc2)c1` (stereo not shown) [Example 31, 4-Methyl-2-[6′-trifluoromethyl-6-(4-trifluoromethyl-phenyl)-[2,3′]bipyridinyl-4-yl]-pent-4-enoic acid], the inhibition at 1 µM came to 59%.
The same measure, in the same setting: in the case of `C=C(C)CC(C(=O)O)c1cc(-c2ccc(C)cc2)nc(-c2ccc(C(F)(F)F)cc2)c1` (stereo not shown) [Example 32, 4-Methyl-2-[2-p-tolyl-6-(4-trifluoromethyl-phenyl)-pyridin-4-yl]-pent-4-enoic acid] it was 7%; in that of `CC(C)CC(C(=O)O)c1cc(-c2ccc(C(F)(F)F)cc2)nc(-c2ccc3c(c2)OCO3)c1` (stereo not shown) [Example 33, 2-[2-Benzo[1,3]dioxol-5-yl-6-(4-trifluoromethyl-phenyl)-pyridin-4-yl]-4-methyl-pentanoic acid], 20%; in that of `C=C(C)CC(C(=O)O)c1cc(-c2ccc(C(F)(F)F)cc2)nc(-c2cccc(-c3ccccc3)c2)c1` (stereo not shown) [Example 34, 2-[2-Biphenyl-3-yl-6-(4-trifluoromethyl-phenyl)-pyridin-4-yl]-4-methyl-pent-4-enoic acid], 16%.
On the same count and under the same terms, the result for `CC(C)CC(C(=O)O)c1cc(-c2ccc(C(F)(F)F)cc2)nc(-c2cccc(-c3ccccc3)c2)c1` (stereo not shown) [Example 35, 2-[2-Biphenyl-3-yl-6-(4-trifluoromethyl-phenyl)-pyridin-4-yl]-4-methyl-pentanoic acid] reads 53%.
On the same count and under the same terms, in the case of `CC(C)COc1cccc(-c2cc(C(CC(C)C)C(=O)O)cc(-c3ccc(C(F)(F)F)cc3)n2)c1` (stereo not shown) [Example 36, 2-[2-(3-Isobutoxy-phenyl)-6-(4-trifluoromethyl-phenyl)-pyridin-4-yl]-4-methyl-pentanoic acid] it was 41%.
In turn, `CC(C)CC(C(=O)O)c1cc(-c2ccc(Oc3ccccc3)cc2)nc(-c2ccc(C(F)(F)F)cc2)c1` (stereo not shown) [Example 37, 4-Methyl-2-[2-(4-phenoxy-phenyl)-6-(4-trifluoromethyl-phenyl)-pyridin-4-yl]-pentanoic acid] came in with an inhibition at 1 µM of 73%.
The same measure, in the same setting: the result for `CC(C)CC(C(=O)O)c1cc(-c2ccccc2)nc(-c2ccc(C(F)(F)F)cc2)c1` (stereo not shown) [Example 38, 4-Methyl-2-[2-phenyl-6-(4-trifluoromethyl-phenyl)-pyridin-4-yl]-pentanoic acid] reads 8%.
As to `CC(C)CC(C(=O)O)c1cc(-c2ccc(C(F)(F)F)cc2)nc(-c2ccc(S(C)(=O)=O)cc2)c1` (stereo not shown) [Example 39, 2-[2-(4-Methanesulfonyl-phenyl)-6-(4-trifluoromethyl-phenyl)-pyridin-4-yl]-4-methyl-pentanoic acid], 1 µM produced 18% inhibition.
On to `CC(C)CC(C(=O)O)c1cc(-c2ccc(C(F)(F)F)cc2)nc(N(CC(C)C)c2ccc(C(F)(F)F)cc2)c1` (stereo not shown) [Example 40, 2-[2-[Isobutyl-(4-trifluoromethyl-phenyl)-amino]-6-(4-trifluoromethyl-phenyl)-pyridin-4-yl]-4-methyl-pentanoic acid], for which the EC50 stood at 340 nM.
The same measure, in the same setting: the result for `CC(C)CCN(c1ccc(C(F)(F)F)cc1)c1cc(C(CC(C)C)C(=O)O)cc(-c2ccc(C(F)(F)F)cc2)n1` (stereo not shown) [Example 41, 4-Methyl-2-[2-[(3-methyl-butyl)-(4-trifluoromethyl-phenyl)-amino]-6-(4-trifluoromethyl-phenyl)-pyridin-4-yl]-pentanoic acid] reads 300 nM.
`CC(C)CCN(c1ccc(C(F)(F)F)cc1)c1cc(CC(=O)O)cc(-c2ccc(C(F)(F)F)cc2)n1` [Example 42, [2-[(3-Methyl-butyl)-(4-trifluoromethyl-phenyl)-amino]-6-(4-trifluoromethyl-phenyl)-pyridin-4-yl]-acetic acid] showed an inhibition at 1 µM of 36%.
In the case of `O=C(O)Cc1cc(-c2ccc(C(F)(F)F)cc2)nc(N(CCC2CCCCC2)c2ccc(C(F)(F)F)cc2)c1` [Example 43, [2-[(2-Cyclohexyl-ethyl)-(4-trifluoromethyl-phenyl)-amino]-6-(4-trifluoromethyl-phenyl)-pyridin-4-yl]-acetic acid], the inhibition at 1 µM was found to be 56%.
Compound `CC(C)CC(C(=O)O)c1cc(-c2ccc(C(F)(F)F)cc2)nc(N(CCC2CCCCC2)c2ccc(C(F)(F)F)cc2)c1` (stereo not shown) [Example 44, 2-[2-[(2-Cyclohexyl-ethyl)-(4-trifluoromethyl-phenyl)-amino]-6-(4-trifluoromethyl-phenyl)-pyridin-4-yl]-4-methyl-pentanoic acid] came in with an EC50 of 640 nM.
`CC(C)CC(C(=O)O)c1cc(-c2ccc(C(F)(F)F)cc2)nc(N(CCN2CCCCC2)c2ccc(C(F)(F)F)cc2)c1` (stereo not shown) [Example 45, 4-Methyl-2-[2-[(2-piperidin-1-yl-ethyl)-(4-trifluoromethyl-phenyl)-amino]-6-(4-trifluoromethyl-phenyl)-pyridin-4-yl]-pentanoic acid] had an inhibition at 1 µM of 20%.
For `CC(C)CCN(c1ccc(C(C)(C)C)cc1)c1cc(C(CC(C)C)C(=O)O)cc(-c2ccc(C(F)(F)F)cc2)n1` (stereo not shown) [Example 46, 2-[2-[(4-tert-Butyl-phenyl)-(3-methyl-butyl)-amino]-6-(4-trifluoromethyl-phenyl)-pyridin-4-yl]-4-methyl-pentanoic acid], the inhibition at 1 µM was 22%.
Compound `CC(C)CCN(c1ccc(C(C)(C)C)cc1)c1cc(CC(=O)O)cc(-c2ccc(C(F)(F)F)cc2)n1` [Example 47, [2-[(4-tert-Butyl-phenyl)-(3-methyl-butyl)-amino]-6-(4-trifluoromethyl-phenyl)-pyridin-4-yl]-acetic acid] came in with an EC50 of 1290 nM.

These data come from patent US7968725B2, “Pyridinyl modulators of γ-secretase” (Janssen Pharmaceutica N.V., priority 2008, dated 2011).
